Experimental data reported in patent US11229633B2, “Arimoclomol formulation” (Orphazyme A/S, priority 2014, dated 2022).
“Also recorded” adds a separate entry of the source.

Key:
[1] = Kinetic solubility assessment in the assay buffers; assay type: physicochemical; conditions: aqueous buffer, kinetic from dmso stock, 37° C.
Protocol: The aqueous solubility of the TA was determined by spectrophotometric measurements in combination with optical microscopy evaluation (5 and 10× magnification). […] The timeframe of the solubility assessment covered the incubation time of the corresponding in vitro experiment.
A stock solution and dilution series (5-step, 2-fold dilution series) of TA were prepared in water. Stock solutions were mixed with the appropriate assay buffers in a 96-wells plate and incubated for 10 minutes at 37° C. before the solutions were evaluated at 500 nm. […] Therefore, to be considered soluble at a given concentration, the background corrected absorbance of the TA solution must be less than 0.030 absorbance units (ΔA=Asolution−Ablank <0.030). The background corrected absorbance value for each solution was determined.

human OAT1 = biological target: T1, human OAT1 (Homo sapiens, UniProt Q4U2R8); experiment: Uptake transporter inhibition assay, OAT1; assay type: in vitro ADME; set-up: key to maximum inhibition: NIO: No interaction observed; conditions: for maximum inhibition: 0.3-300 μM
T1 construct: expressed in transfected cells; host or cells: CHO (protocol UPT-CHO-OAT1-Tenofovir; control: parental CHO-K1)
T1 sequence (Q4U2R8 1-563): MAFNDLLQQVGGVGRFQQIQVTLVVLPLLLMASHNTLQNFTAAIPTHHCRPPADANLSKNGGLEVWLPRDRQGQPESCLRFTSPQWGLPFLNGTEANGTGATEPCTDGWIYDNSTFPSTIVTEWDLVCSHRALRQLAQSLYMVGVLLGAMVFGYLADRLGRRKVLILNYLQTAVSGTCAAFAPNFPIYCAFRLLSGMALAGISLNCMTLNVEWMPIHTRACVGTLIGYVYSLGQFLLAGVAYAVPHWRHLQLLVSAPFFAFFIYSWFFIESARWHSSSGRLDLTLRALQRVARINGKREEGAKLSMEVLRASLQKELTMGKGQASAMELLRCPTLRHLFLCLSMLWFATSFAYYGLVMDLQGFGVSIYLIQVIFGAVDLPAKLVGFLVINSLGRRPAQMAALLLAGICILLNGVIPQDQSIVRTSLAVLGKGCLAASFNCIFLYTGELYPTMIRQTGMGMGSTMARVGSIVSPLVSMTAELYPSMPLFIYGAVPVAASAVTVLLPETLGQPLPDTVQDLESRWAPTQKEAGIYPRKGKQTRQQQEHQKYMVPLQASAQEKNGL
Protocol: (§1) Uptake experiments were performed using CHO, MDCKII, or HEK293 cells stably expressing the respective uptake transporters.
Cells were cultured at 37±1° C. in an atmosphere of 95:5 air:CO2 and were plated onto standard 96-well tissue culture plates at the cell number described in table 4.
Before the experiment, the medium was removed and the cells were washed twice with 100 μl of HK buffer at pH 7.4 (prepared from Sigma chemicals, Sigma-Aldrich, St Louis, Mo.). Uptake experiments were carried out at 37±1° C. in 50 μl of HK buffer (pH 7.4) containing the probe substrate and the TA or vehicle control (water).
After the experiment, cells were washed twice with ice cold, 100 μl of HK buffer and lysed with 50 μl of 0.1 M NaOH (1 mM CaCl2) in 5% SDS in the case of OATP1B3). Fluo-3 transport (OATP1B3) was determined by measuring fluorescence using 485 nm and 520 nm as the excitation and emission wavelengths, respectively. Radiolabelled probe substrate transport was determined by measuring an aliquot (35 μl) from each well for liquid scintillation counting.
Uptake of the probe substrate in control cells provided background activity values for all data points. Incubation without TA or reference inhibitor (solvent only) provided 100% activity values. A reference inhibitor served as positive control for inhibition.
The amount of translocated probe substrate was determined for each well in cpm or RFU. Relative activities were calculated from the equation:
[formula] A: amount of translocated substrate in the presence of TA in transfected cells B: amount of translocated substrate in the presence of TA in control cells C: amount of translocated substrate in the presence of solvent in transfected cells D: amount of translocated substrate in the presence of solvent in control cells Calculation of Fold Accumulation Values
In uptake transporter inhibition assays, the IC50 (μM) was calculated, where applicable. […]

human OCT2 = biological target: T2, human OCT2 (Homo sapiens, UniProt O15244); experiment: Uptake transporter substrate feasibility assay, OCT2; assay type: in vitro ADME; set-up: key to Substrate: NIO: No interaction observed
T2 construct: expressed in transfected cells; host or cells: CHO (protocol UPT-CHO-OCT2-Metf; control: parental CHO-K1)
T2 sequence (O15244 1-555): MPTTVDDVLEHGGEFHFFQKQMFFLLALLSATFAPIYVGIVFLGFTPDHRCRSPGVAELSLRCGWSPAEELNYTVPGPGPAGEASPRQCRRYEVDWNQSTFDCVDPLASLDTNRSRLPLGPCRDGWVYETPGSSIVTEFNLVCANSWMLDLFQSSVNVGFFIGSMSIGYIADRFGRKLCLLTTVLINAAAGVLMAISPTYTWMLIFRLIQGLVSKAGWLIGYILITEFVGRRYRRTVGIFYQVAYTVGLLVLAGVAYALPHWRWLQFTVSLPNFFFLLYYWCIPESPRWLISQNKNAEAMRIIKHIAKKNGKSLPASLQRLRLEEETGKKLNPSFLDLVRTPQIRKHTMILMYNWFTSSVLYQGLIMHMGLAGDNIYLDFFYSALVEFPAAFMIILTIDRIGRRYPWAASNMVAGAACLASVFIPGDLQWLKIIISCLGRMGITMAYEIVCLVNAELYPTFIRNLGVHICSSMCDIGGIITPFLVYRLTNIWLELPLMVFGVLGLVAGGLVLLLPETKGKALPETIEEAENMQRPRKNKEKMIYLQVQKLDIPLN
Protocol: as §1
Cells were cultured at 37±1° C. in an atmosphere of 95:5 air:CO2 as described in Table 4 and were plated onto standard 24-well tissue culture plates at 2×10^5 cells/well. The uptake of the TA was determined using cells overexpressing the respective uptake transporter and control cells, at two incubation time points (2 and 20 min) and at two concentrations (1 and 10 μM) of TA to determine whether or not the TA was actively taken up into the cells.
Before the experiment, the medium was removed and the cells were washed twice with 300 μl of HK buffer (pH 7.4) (prepared from Sigma chemicals). Cellular uptake of TA into the cells was measured by adding 300 μl of HK buffer containing TA and incubating them at 37±1° C. Reactions were quenched by removing the HK buffer containing the TA and the cells were washed twice with 300 μl of HK buffer. Cells were lysed by adding 300 μl of MeOH:H2O (2:1) and incubated for 20 minutes at 4±1° C. The amount of TA in the cell lysate was determined by LC-MS/MS. The amount of protein in each well was quantified using the BCA kit for protein determination (Sigma-Aldrich, St Louis, Mo., USA). Uptake of the probe substrate in control cells provided background activity values for all data points. Incubation without reference inhibitor (solvent only) provided 100% activity values. A reference inhibitor served as positive control for inhibition.
The fold accumulation value was defined as the ratio of uptake of TA or probe substrate into transfected and control cells:
[formula] UPTTRP: accumulated amount of TA or probe substrate in transfected cells normalized by protein content [pmol/mg protein] UPTCTL: accumulated amount of TA or probe substrate in control cells normalized by protein content [pmol/mg protein]
If the fold accumulation is >2 and can be inhibited by a known inhibitor of the transporter, the TA can be considered to be a substrate of the respective transporter.

With [O-][n+]1cccc(C(Cl)=NOCC(O)CN2CCCCC2)c1 (centres unmarked) [Arimoclomol, N-[2-hydroxy-3-(1-piperidinyl)-propoxy]-pyridine-1-oxide-3-carboximidoyl chloride] the solubility at 10 min [1] was at least 300 µM, the maximum inhibition (human OAT1; Table 2) was “NIO” and the maximum inhibition (human OAT1; Table 5) was “NIO”. For the same compound, the “Influence on OAT1-mediated probe substrate accumulation (in words)” value (human OAT1; applied concentrations) was “did not influence; also recorded: not an inhibitor”, the “Substrate of the transporter (in words)” value (human OCT2) was “not a substrate” and the Fold accumulation (human OCT2; 1 μM, 2 min) was 0.95. For the same compound, the Fold accumulation (human OCT2; 1 μM, 20 min) was 1.28, the Fold accumulation (human OCT2; 10 μM, 2 min) was 0.87 and the Fold accumulation (human OCT2; 10 μM, 20 min) was 1.05. For the same compound, the Fold accumulation (human OCT2; 1 and 10 μM, 2 and 20 min) was under 2 and the Substrate (human OCT2; Table 2) was “NIO”.
